# Patent US20030152557A1, “Methods for inhibiting histone deacetylase-4” (priority 2001, published 2003)
# d = 2'-deoxy (DNA); m = 2'-O-methyl
# How the values were obtained:
# [1] = tested on: human HDAC-4 mRNA; assay: Northern blot analysis of HDAC-4 RNA expression; type: cell-based; details: A549 cells, escalating doses, 24 hours
# Procedure: Human cancer A549 cells were treated with escalating doses of AS1, AS2 or MM2 oligos for 24 hours. Total RNAs were harvested for Northern analysis.
# Seventeen phosphorothioate ODNs containing sequences complementary to the 5′ or 3′ UTR of the human HDAC-4 gene (GenBank Accession No. AB006626) were screened as above. […] HDAC-4 MM oligo was created as a control; compared to the antisense oligo, it contains a 6-base mismatch.
# (§1) Briefly, human A549 and/or T24 human bladder carcinoma cells were seeded in 10 cm tissue culture dishes one day prior to oligonucleotide treatment. The cell lines were obtained from the American Type Culture Collection (ATCC) (Manassas, Va.) and were grown under the recommended culture conditions. Before the addition of the oligonucleotides, cells were washed with PBS (phosphate buffered saline). Next, lipofectin transfection reagent (GIBCO BRL Mississauga, Ontario, CA), at a concentration of 6.25 μg/ml, was added to serum free OPTIMEM medium (GIBCO BRL, Rockville, Md.), which was then added to the cells. The oligonucleotides to be screened were then added directly to the cells (i.e., one oligonucleotide per plate of cells). Mismatched oligonucleotides were used as controls. The same concentration of oligonucleotide (e.g., 50 nM) was used per plate of cells for each oligonucleotide tested.
# Cells were harvested, and total RNAs were analyzed by Northern blot analysis. […]
# [2] = tested on: human HDAC-4 protein; assay: Western blot of HDAC-4 protein expression; type: cell-based; details: A549 cells, 48 hours
# Procedure: Human cancer A549 cells were treated with AS1, AS2 or MM2 oligos for 48 hours. Whole cell lysates were analyzed by Western blotting using antibodies specific against human HDAC-4.
# (§2) OSDN treatment conditions were as previously described.
# (§3) Cells were lysed in buffer containing 1% Triton X-100, 0.5% sodium deoxycholate, 5 mM EDTA, 25 mM Tris-HCl, pH 7.5, plus protease inhibitors. Total protein was quantified by the protein assay reagent from Bio-Rad (Hercules, Calif.). 100 ug of total protein was analyzed by SDS-PAGE. Next, total protein was transferred onto a PVDF membrane and probed with various HDAC-specific primary antibodies. Rabbit anti-HDAC-1 (H-51), anti-HDAC-2 (H-54) antibodies (Santa Cruz Biotechnologies, Santa Cruz, Calif.) were used at 1:500 dilution. Rabbit anti-HDAC-3 antibody (Sigma, St. Louis, Mo.) was used at a dilution of 1:1000. Anti-HDAC-4 antibody was prepared as previously described (Wang, S. H. et al., (1999) Mol. Cell. Biol. 19:7816-27), and was used at a dilution of 1:1000. Anti-HDAC-6 antibody was raised by immunizing rabbits with a GST fusion protein containing a fragment of HDAC-6 protein (amino acid #990 to #1216, GenBank Accession No. AAD29048). Rabbit antiserum was tested and found only to react specifically to the human HDAC-6 isoform. HDAC-6 antiserum was used at 1:500 dilution in Western blots to detect HDAC-6 in total cell lysates. […]
# [3] = tested on: T24 human bladder cancer cells; assay: inhibition of HDAC activity in whole cells (acetylated histone H-4 Western); type: cell-based; details: acetylated histone H-4 in T24 cells, 16 hours
# Procedure: T24 human bladder cancer cells (ATCC, Manassas, Va.) growing in culture were incubated with test compounds for 16 hours. Histones were extracted from the cells by standard procedures (see e.g. Yoshida et al., supra) after the culture period. Twenty μg total core histone protein was loaded onto SDS/PAGE and transferred to nitrocellulose membranes, which were then reacted with polyclonal antibody specific for acetylated histone H-4 (Upstate Biotech Inc., Lake Placid, […].). Horse Radish Peroxidase conjugated secondary antibody was used at a dilution of 1:5000 to detect primary antibody binding. The secondary antibody binding was visualized by use of the Enhanced chemiluminescence (ECL) detection kit (Amersham-Pharmacia Biotech., Inc., Piscataway, N.J.). After exposure to film, acetylated H-4 signal was quantitated by densitometry.
# [4] = tested on: A549; assay: apoptosis, Cell Death Detection ELISA, A549; type: cell-based, human; details: HDAC isotype-specific OSDN, 48 hour treatment
# Procedure: as §1
# (§4) In order to determine the effect of HDAC OSDNs on cell growth and cell death through apoptosis, A549 or T24 cells, MDAmb231 cells, and HMEC cells (ATCC, Manassas, Va.) were treated with HDAC OSDNs as previously described.
# (§5) For the apoptosis study, cells were analyzed using the Cell Death Detection ELISA^Plus kit (Roche Diagnostic GmBH, Mannheim, Germany) according to the manufacturer's directions. Typically, 10,000 cells were plated in 96-well tissue culture dishes for 2 hours before harvest and lysis. Each sample was analyzed in duplicate. ELISA reading was done using a MR700 plate reader (DYNEX Technology, Ashford, Middlesex, England) at 410 nm. The reference was set at 490 nm.
# [5] = tested on: T24; assay: apoptosis, Cell Death Detection ELISA, T24; type: cell-based, human; details: HDAC isotype-specific OSDN, 48 hour treatment
# Procedure: as §1, §4, §5
# [6] = tested on: MDAmb231; assay: apoptosis, Cell Death Detection ELISA, MDAmb231; type: cell-based, human; details: HDAC isotype-specific OSDN, 48 hour treatment
# Procedure: as §1, §4, §5
# [7] = tested on: HMEC; assay: apoptosis, Cell Death Detection ELISA, HMEC; type: cell-based, human; details: HDAC isotype-specific OSDN, 48 hour treatment
# Procedure: as §1, §4, §5
# [8] = tested on: human HDAC-2 RNA; assay: Northern blot analysis of HDAC-2 RNA expression; type: cell-based; details: T24 cells, 100 nM, 24 hours
# Procedure: Twenty-four phosphorothioate ODNs containing sequences complementary to the 5′ or 3′ UTR of the human HDAC-2 gene (GenBank Accession No. U31814) were screened as above. […] HDAC-2 MM was created as a control; compared to the antisense oligo, it contains a 7-base mismatch.
# as §1
# (§6) Cells were harvested, and total RNAs were analyzed by Northern blot analysis. Briefly, total RNA was extracted using RNeasy miniprep columns (QIAGEN). […]
# [9] = tested on: human HDAC-2 protein; assay: Western blot of HDAC-2 protein expression; type: cell-based; details: A549 cells, 50 nM, 48 hours
# Procedure: as §2
# as §3, with “lysates. Horse Radish Peroxidase conjugated secondary antibody was used at a dilution of 1:5000 to detect primary antibody binding.” for “lysates.”
# [10] = tested on: human cancer cells; assay: cell growth analysis and apoptosis, cancer cells; type: cell-based; details: various human cancer cells, 50 nM
# Procedure: as §4, §5
# Cells were harvested and cell numbers counted by trypan blue exclusion using a hemocytometer. Percentage of inhibition was calculated as (100-AS cell numbers/control cell numbers)%.
# [11] = tested on: human HDAC-3 mRNA; assay: Northern blot analysis of HDAC-3 RNA expression; type: cell-based; details: T24 cells, 100 nM, 24 hours
# Procedure: Twenty-one phosphorothioate ODNs containing sequences complementary to the 5′ or 3′ UTR of the human HDAC-3 gene (GenBank Accession No. AF039703) were screened as above. […] HDAC-3 MM oligo was created as a control; compared to the antisense oligo, it contains a a 6-base mismatch.
# as §1, §6
# [12] = tested on: human HDAC-3 protein; assay: Western blot of HDAC-3 protein expression; type: cell-based; details: A549 cells, 50 nM, 48 hours
# Procedure: as §2
# as §3, with “lysates. Horse Radish Peroxidase conjugated secondary antibody was used at a dilution of 1:5000 to detect primary antibody binding.” for “lysates.”
# [13] = tested on: Human A549 cells; assay: cDNA array analysis of gene transcription; type: cell-based; details: 50 nM, two days, vs HDAC-4 mismatch oligo (MM2)
# Procedure: as §1
# [14] = tested on: human HDAC-6 RNA; assay: Northern blot analysis of HDAC-6 RNA expression; type: cell-based; details: T24 cells, 100 nM, 24 hours
# Procedure: Thirteen phosphorothloate ODNs containing sequences complementary to the 5′ or 3′ untranslated regions of the human HDAC-6 gene (GenBank Accession No. AJ011972) were screened as above. […] HDAC-6 MM oligo was created as a control; compared to the antisense oligo, it contains a 7-base mismatch.
# as §1, §6
# [15] = tested on: human HDAC-6 protein; assay: Western blot of HDAC-6 protein expression; type: cell-based; details: A549 cells, 50 nM, 48 hours
# Procedure: as §2
# as §3, with “lysates. Horse Radish Peroxidase conjugated secondary antibody was used at a dilution of 1:5000 to detect primary antibody binding.” for “lysates.”
compound,measurement,setting,value
"5′-TACAGTCCATGCAACCTCCA-3′ (sugars from the 5' end m4 d12 m4, all phosphorothioate, methylation of C and T or U not given here) [HDAC4 AS2, antisense oligo, human HDAC4 3′-UTR]",HDAC-4 expression at RNA level,[1],inbibit HDAC-4 expression at RNA level in a dose-dependent manner
same,expression of HDAC-4 protein,[2],inbibit HDAC-4 expression at protein level
Cc1ccc(S(=O)(=O)Nc2ccc(/C=C/C(=O)Nc3ccccc3N)cc2)cc1 [MG 37 63],4-Ac,[3],5 µM
CC(/C=C/C(=O)Nc1ccccc1N)=C\C(C)C(=O)c1ccc(N(C)C)cc1 (stereo not drawn) [MG 24 29],4-Ac,[3],1 µM
"5′-GCTGAGCTGTTCTGATTTGG-3′ (chemistry not given here) [HDAC-2, antisense oligo, human HDAC2 3′-UTR]",Apoptosis A549,[4],− (“−”: < = 2x fold over non-specific background)
same,Apoptosis T24,[5],− (“−”: < = 2x fold over non-specific background)
same,Apoptosis MDAmb231,[6],− (“−”: < = 2x fold over non-specific background)
same,Apoptosis HMEC,[7],− (“−”: < = 2x fold over non-specific background)
same,HDAC-2 RNA expression (antisense activity),[8],antisense activity to human HDAC-2
same,expression of HDAC-2 protein,[9],specifically inhibits the expression of the respective HDAC isotype protein
same,effect on cancer cell growth and apoptosis,[10],minimal effect on cancer cell growth inhibition
Nc1ccccc1NC(=O)CCCCCCC(=O)c1ccc(-c2ccccc2)nc1 [MG 38 69],4-Ac,[3],5 µM
"5′-CGCTTTCCTTGTCATTGACA-3′ (sugars from the 5' end m4 d12 m4, all phosphorothioate, methylation of C and T or U not given here) [HDAC-3, antisense oligo, human HDAC3 3′-UTR]",Apoptosis A549,[4],− (“−”: < = 2x fold over non-specific background)
same,Apoptosis T24,[5],− (“−”: < = 2x fold over non-specific background)
same,Apoptosis MDAmb231,[6],− (“−”: < = 2x fold over non-specific background)
same,Apoptosis HMEC,[7],− (“−”: < = 2x fold over non-specific background)
same,HDAC-3 RNA expression (antisense activity),[11],antisense activity to human HDAC-3
same,expression of HDAC-3 protein,[12],specifically inhibits the expression of the respective HDAC isotype protein
same,effect on cancer cell growth and apoptosis,[10],no effect on cancer cell growth or apoptosis
Nc1ccccc1NC(=O)CCCCCCC(=O)c1ccc(-c2ccccc2)cc1 [MG 36 50],4-Ac,[3],10 µM
"5-GCTGCCTGCCGTGCCCACCC-3′ (sugars from the 5' end m4 d12 m4, all phosphorothioate, methylation of C and T or U not given here) [HDAC-4 AS1, antisense oligo, human HDAC4 5′-UTR]",fold change CDK4,[13],−3 fold
same,fold change Egr-1,[13],3 fold
same,fold change GADD45,[13],3 fold
same,fold change GADD153,[13],6 fold
same,fold change IL-15,[13],4 fold
same,fold change IRF,[13],2 fold
same,fold change Notch-4,[13],−3 fold
same,fold change PLK,[13],−4 fold
same,fold change basic FGF,[13],2 fold
same,fold change cyclin A2,[13],−3 fold
same,fold change cyclin B1,[13],−3 fold
same,fold change p21,[13],4 fold
same,fold change topo II α,[13],−5 fold
same,HDAC-4 expression at RNA level,[1],inbibit HDAC-4 expression at RNA level in a dose-dependent manner
same,expression of HDAC-4 protein,[2],inbibit HDAC-4 expression at protein level
"5′-CAGGCTGGAATGAGCTACAG-3′ (sugars from the 5' end m4 d12 m4, all phosphorothioate, methylation of C not given here) [HDAC-6, antisense oligo, human HDAC6 3′-UTR]",Apoptosis A549,[4],− (“−”: < = 2x fold over non-specific background)
same,Apoptosis T24,[5],− (“−”: < = 2x fold over non-specific background)
same,Apoptosis MDAmb231,[6],− (“−”: < = 2x fold over non-specific background)
same,Apoptosis HMEC,[7],− (“−”: < = 2x fold over non-specific background)
same,HDAC-6 RNA expression (antisense activity),[14],antisense activity to human HDAC-6
same,expression of HDAC-6 protein,[15],specifically inhibits the expression of the respective HDAC isotype protein
same,effect on cancer cell growth and apoptosis,[10],no effect on cancer cell growth or apoptosis
